Measured values: patent US11225481B2 (Centre national de la recherche scientifique, priority 2015, dated 2022)

target: T1, BRD4(BD1) (Homo sapiens, UniProt O60885); test: HTRF assay on robot-synthesised focused library (Example 4 bis); type: binding; details: Table 2 bis; focused library without intermediary purification; read-out: HTRF (IC50, μM), effect on BRD4(BD1) activity
T1 construct: a BRD4(BD1) synthetic gene that includes a TEV cleavage site was purchased from LifeTechnology; made in house
Procedure: (§1) The Accelerator Synthetizer SLT100 allows the efficient synthesis of the focused library in 96 well plates that can be directly transferred to a Labcyte Access/Echo® Laboratory Workstation to assess the compounds for their ability to disrupt bromodmain/histone complexes using the homogeneous time-resolved fluorescence (HTRF®) technology (IC50 μM).
as §1, with “After” for “The Accelerator Synthetizer SLT100 allows”, “with the Accelerator Synthetizer SLT100, the focused library has been” for “that can be”, “μM, table 2bis).” for “μM).”

Structure (SMILES) | IC50
CCCCn1c(=O)[nH]c(=O)c2c1nc(CSc1nc3nc(C)c(CCC(=O)O)c(C)n3n1)n2CC [Compound 33] | 8.5 µM
CCCCn1c(=O)[nH]c(=O)c2c1nc(CSc1nc3nc(C)c(CC(=O)O)c(C)n3n1)n2CC [Compound 34] | 44.5 µM
CCCCn1c(=O)[nH]c(=O)c2c1nc(CSc1nc3ccc(C(=O)O)cc3o1)n2CC [Compound 35] | 19.2 µM
CCCCn1c(=O)[nH]c(=O)c2c1nc(CSc1nc3cc(C(=O)O)ccc3o1)n2CC [Compound 36] | 3 µM
CCCCn1c(=O)[nH]c(=O)c2c1nc(CSc1nc3cc(S(=O)(=O)CC)ccc3o1)n2CC [Compound 37] | 16.6 µM

target: T1, BRD4(BD1); test: HTRF assay, disruption of bromodomain/histone peptide interaction; type: binding; details: HTRF; mean ± SD of three experiments; Table 2; read-out: IC50 μM, effect on BRD4(BD1) activity
Procedure: HTRF assays were performed in white 384 Well Small Volume™ HiBase Polystyrene Microplates (Greiner) with a total working volume of 20 μL. Compounds were dispensed, with 200 nL per well (1% final DMSO), from a concentration stock of 1 mM in 100% DMSO and with serial DMSO dilutions, using a Mosquito Crystal pipetting robot platform (TTP labtech). The IC50 measurements were performed in triplicates (Table 2 and 3). All HTRF reagents were purchased from CisBio Bioassays and reconstituted according to the supplier protocols. For each assay 14.7 μL of mix 1 (protein+peptide) is added in the assay wells, containing previously dispensed inhibitors, according to the final concentration and buffer described in Table 4, using a Biomek NX MC pipetting robot (Beckman). Then, 5.1 μL of mix 2 (donnor+acceptor) is added. HTRF signals were measured, after a final incubation (overnight at room temperature), using a PHERAstar FS (BMG Labtech) with an excitation filter at 337 nm and fluorescence wavelength measurement at 620 and 665 nm, an integration delay of 60 μs and an integration time of 500 μs. Results were analyzed with a two-wavelengths signal ratio: [intensity (665 nm)/intensity (620 nm)]*10^4. Percentage of inhibition was calculated using the following equation: % inhibition=[(compound signal)−(min signal)]/[(max signal)−(min signal)]*100, where ‘max signal’ is the signal ratio with the compound vehicle alone (DMSO) and ‘min signal’ the signal ratio without peptide.
For Isothermal Titration Calorimetry (ITC) and crystallogenesis, BRD4(BD1) was produced and purified using a histidine tag affinity chromatography as described by Filipakopoulos et al.9 For these experiments, a pNIC28-BSA4 expression vector containing BRD4(BD1) and a Tobacco Etch Virus (TEV) protease cleavage site have kindly been provided by Stefan Knapp laboratory from the SGC at the University of Oxford. After size exclusion chromatography, the fractions presenting pure BRD4(BD1) after TEV cleavage of the histidine tag were pooled and concentrated to 25 mg/mL for crystallogenesis. For ITC assays, the protein was concentrated up to at 6 mg/mL and the DTT was removed using a buffer exchange column (PD10 from GE healthcare) equilibrated with 10 mM HEPES pH=7.5, 150 mM NaCl. For Homogeneous Time Resolved Fluorimetry (HTRF) experiments, a BRD4(BD1) synthetic gene that includes a TEV cleavage site was purchased from LifeTechnology in a pDONR transport vector before cloning into a pDESTTM15 expression vector for GST affinity purification. Protein production and purification was carried out using similar protocols and buffers as used for the His-BRD4(BD1) system. Purification was carried on GST affinity resin (Thermo Scientific) and reduced glutathione was used for protein release. GST-BRD4(BD1) was further purified by size exclusion chromatography on a Superdex 16/60 Hiload column (GE Healthcare) using 20 mM TRIS pH=8.0, 150 mM NaCl Buffer.

Structure (SMILES) | IC50
Nc1nc2nc[nH]c2c(=O)[nH]1 [Compound 1a] | > 100 µM
Cn1cnc2nc(N)[nH]c(=O)c21 [Compound 1b] | > 100 µM
CCn1cnc2[nH]c(N)nc(=O)c21 [Compound 1c, 7-ethylguanine] | > 100 µM
Nc1nc2nc[nH]c2c(=S)[nH]1 [Compound 2a] | > 100 µM
O=c1[nH]c(=O)c2[nH]cnc2[nH]1 [Compound 2b, xanthine] | > 100 µM
Cn1cnc2[nH]c(=O)[nH]c(=O)c21 [Compound 2c] | > 100 µM
CCn1cnc2[nH]c(=O)[nH]c(=O)c21 [Compound 3a, 7-Ethylxanthine] | > 100 µM
CC(C)Cn1cnc2[nH]c(=O)[nH]c(=O)c21 [Compound 3b] | > 100 µM
CCn1cnc2[nH]c(NC(=O)OC(C)(C)C)nc(=O)c21 [Compound 3c] | > 100 µM
O=c1[nH]c(=O)n(Cc2ccc(Cl)cc2)c2nc[nH]c12 [Compound 4a] | > 100 µM
CCn1cnc2c1c(=O)[nH]c(=O)n2C [Compound 4c] | > 100 µM
CCn1cnc2c1c(=O)[nH]c(=O)n2CC [Compound 5a] | 70.3 µM
CCn1cnc2c1c(=O)[nH]c(=O)n2C(C)C [Compound 5b] | 52.5 µM
CCn1cnc2c1c(=O)[nH]c(=O)n2CC(C)C [Compound 5c] | > 100 µM
CCn1cnc2c1c(=O)[nH]c(=O)n2Cc1ccc(Br)cc1 [Compound 6c] | 2.6 µM
CCn1cnc2c1c(=O)[nH]c(=O)n2Cc1ccc(C(C)(C)C)cc1 [Compound 7b] | 2.6 µM
CCCCn1c(NC(=O)OC(C)(C)C)nc(=O)c2c1ncn2CC [Compound 7c] | 17.9 µM
CCn1cnc2c1c(=O)nc(NC(=O)OC(C)(C)C)n2Cc1ccc(Cl)cc1 [Compound 8a] | > 100 µM
CCn1cnc2c1c(=O)nc(NC(=O)OC(C)(C)C)n2C(=O)OC(C)(C)C [Compound 8b] | > 100 µM
CCCCn1c(N)nc(=O)c2c1ncn2CC [Compound 8c] | 10.7 µM
CCn1cnc2c1c(=O)nc(N)n2Cc1ccc(Cl)cc1 [Compound 9a] | > 100 µM
Cn1c(-c2ccc(Cl)cc2)nc2c1c(=O)[nH]c(=O)n2Cc1ccccc1 [Compound 10c] | > 100 µM
O=c1[nH]c(=O)c2[nH]c(Br)nc2[nH]1 [Compound 11b] | > 100 µM
O=c1[nH]c(=O)n(Cc2ccc(Cl)cc2)c2nc(Br)[nH]c12 [Compound 11c] | > 100 µM
CCn1c(Br)nc2[nH]c(=O)[nH]c(=O)c21 [Compound 12a] | > 100 µM
CCn1c(Br)nc2c1c(=O)[nH]c(=O)n2Cc1ccc(Cl)cc1 [Compound 12b] | < 100 µM
CCCCn1c(=O)[nH]c(=O)c2c1nc(Cl)n2CC [Compound 12c, 3-Butyl-8-chloro-7-ethylxanthine] | > 100 µM
CCn1c(S)nc2c1c(=O)[nH]c(=O)n2C [Compound 14c] | < 100 µM

Structure (SMILES) | IC50
CCCCn1c(=O)[nH]c(=O)c2c1nc(S)n2CC [Compound 15a, 3-butyl-7-ethyl-8-mercaptoxanthine] | 35.1 µM
CCn1c(SC)nc2c1c(=O)[nH]c(=O)n2C [Compound 15c] | 100 µM
O=C(O)CCSc1nc2c([nH]1)c(=O)[nH]c(=O)n2Cc1ccc(F)cc1 [Compound 16a] | > 100 µM
CCCCn1c(=O)[nH]c(=O)c2[nH]c(CO)nc21 [Compound 17a, 3-Butyl-8-hydroxymethylxanthine] | > 100 µM
O=c1[nH]c(=O)n(Cc2ccc(Cl)cc2)c2nc(CO)[nH]c12 [Compound 17b] | > 100 µM
CCCCn1c(=O)[nH]c(=O)c2c1nc(CO)n2C [Compound 17c] | > 100 µM
CCCCn1c(=O)[nH]c(=O)c2c1nc(CO)n2CC [Compound 18a, 3-Butyl-7-ethyl-8-hydroxymethylxanthine] | > 100 µM
CCCCn1c(=O)[nH]c(=O)c2c1nc(CO)n2CCC [Compound 18b] | > 100 µM
CCn1c(CO)nc2c1c(=O)[nH]c(=O)n2Cc1ccccc1 [Compound 18c] | > 100 µM
CCn1c(CO)nc2c1c(=O)[nH]c(=O)n2Cc1ccc(Cl)cc1 [Compound 19a] | 93.3 µM
CCCCn1c(=O)[nH]c(=O)c2c1nc(CCl)n2CC [Compound 19c, 3-butyl-8-chloromethyl-7-ethylxanthine] | > 100 µM
CCn1c(CSc2nc[nH]n2)nc2c1c(=O)[nH]c(=O)n2Cc1ccc(Cl)cc1 [Compound 21a] | 45.6 µM
CCCCn1c(=O)[nH]c(=O)c2c1nc(CSc1n[nH]c(N)n1)n2CC [Compound 21b, 8-(5-Amino-1H-[1,2,4]triazol-3-ylsulfanylmethyl)-3-butyl-7-ethyl-3,7-dihydro-purine-2,6-dione] | 89.1 µM
CCCCn1c(=O)[nH]c(=O)c2c1nc(CSc1nc3ccccc3[nH]1)n2CC [Compound 22b] | > 100 µM
CCn1c(CSc2nc3ccccc3[nH]2)nc2c1c(=O)[nH]c(=O)n2Cc1ccc(Cl)cc1 [Compound 23a] | > 100 µM
CCCCn1c(=O)[nH]c(=O)c2c1nc(CSc1cc3ccccc3[nH]1)n2CC [Compound 23b] | > 100 µM
CCn1c(CSc2cc3ccccc3[nH]2)nc2c1c(=O)[nH]c(=O)n2Cc1ccc(Cl)cc1 [Compound 24a] | > 100 µM
CCCCn1c(=O)[nH]c(=O)c2c1nc(CSc1nc3nc(C)cc(C)n3n1)n2CC [Compound 24b] | 69.6 µM
CCCCn1c(=O)[nH]c(=O)c2c1nc(CSc1nc3nc(CC)cc(CC)n3n1)n2CC [Compound 25b] | 46.6 µM
CCCCc1c(C)nc2nc(SCc3nc4c(c(=O)[nH]c(=O)n4Cc4ccc(Cl)cc4)n3C)nn2c1C [Compound 27a] | 100 µM
CCCCc1c(C)nc2nc(SCc3nc4c(c(=O)[nH]c(=O)n4Cc4ccc(Cl)cc4)n3CC(C)C)nn2c1C [Compound 28a] | > 100 µM
CCCCn1c(=O)[nH]c(=O)c2c1nc(Sc1nc3nc(C)cc(C)n3n1)n2CC [Compound 28b, 3-Butyl-8-(5,7-dimethyl-[1,2,4]triazolo[1,5-a]pyrimidin-2-ylsulfanyl)-7-ethyl-3,7-dihydro-purine-2,6-dione] | > 100 µM
CCn1c(Sc2nc3nc(C)cc(C)n3n2)nc2c1c(=O)[nH]c(=O)n2Cc1ccc(Cl)cc1 [Compound 29a] | > 100 µM
CCc1cc(CC)n2nc(Sc3nc4c(c(=O)[nH]c(=O)n4Cc4ccc(Cl)cc4)n3CC)nc2n1 [Compound 30a] | 18.3 µM
CCCCc1c(C)nc2nc(Sc3nc4c(c(=O)[nH]c(=O)n4Cc4ccc(Cl)cc4)n3CC)nn2c1C [Compound 31a] | 46.8 µM
CCCCc1c(C)nc2nc(CSc3nc4c(c(=O)[nH]c(=O)n4Cc4ccc(Cl)cc4)n3CC)nn2c1C [Compound 31b] | 59.6 µM
CCCCc1c(C)nc2nc(CSc3nc4c(c(=O)[nH]c(=O)n4CCCC)n3CC)nn2c1C [Compound 32a, 3-Butyl-8-(6-butyl-5,7-dimethyl-[1,2,4]triazolo[1,5-a]pyrimidin-2-ylmethylsulfanyl)-7-ethyl-3,7-dihydro-purine-2,6-dione] | 54 µM
